Experimental data taken from patent publication US11945806B2, “Stabilization of amyloidogenic immunoglobulin light chains” (The Scripps Research Institute, priority 2019, dated 2024).

Assays:
5J8 Fab = assay: PK proteolysis; format: biochemical, human
[1] = tested on: isolated V-domains from WIL, ALMC2 and 6aJL2; assay: Fluorogenic coumarin titration, isolated V-domains; format: binding, human; settings: 1 at 1 μM
Experimental: (§1) Fluorogenic coumarin titration. LCs were concentrated to 200 μM in centrifugal concentrators with a 10 kDa membrane, unless the available material was limiting. […] Fluorescence of 1 was measured on a Gemini plate reader (Molecular Devices) using an excitation wavelength of 373 nm and emission wavelength of 445 nm. Data were normalized platewise to the plateau fluorescence value for WIL-FL to calculate the fraction of 1 bound.
(§2) A successful kinetic stabilizer should, but is not required to, bind to and stabilize patient LCs with a vast range of sequences (30, 31). To ask whether 1 can stabilize other FL LC sequences, we measured binding of 1 to three more recombinant λ6-57 FL LC disulfide-linked dimers: JTO-FL; ALMC2-FL, an AL-associated LC sequence derived from the ALMC2 cell line (32); and the germline sequence 6aJL2-FL.

WIL-FL* = WIL-FL* (Homo sapiens, UniProt P01721, K101C, form not given); assay: Protease-coupled fluorescence polarization (PCFP) assay with proteinase K; settings: secondary screen, mean ± sd, n=3; 6.75 μM compound; FP retention after 24 h at 22° C., normalized to high and low controls
WIL-FL C214S [2] = assay: Aggregation measured by SEC (disappearance of soluble dimeric LC); format: biochemical, human; settings: 1 at 200 μM, LC 10 μM, pH 5, 37° C.; 0.066 hr^−1 in the absence of 1
Experimental: (§3) Aggregation. WIL C214S was dialyzed into ddH2O and filtered. Each 1 ml reaction contained 10 μM LC, ddH2O, 1% DMSO or 200 μM 1 in 1% DMSO, 150 mM NaCl, and ABC buffer (20 mM sodium acetate, 20 mM boric acid, 20 mM sodium citrate, pH 5 with HCl). Components are listed in the order they were added.
For analysis by SEC, reactions were set up in 2 ml tubes (Axygen #SCT-200-B-S) equipped with 4 mm stir bars. For each experiment, four reactions (two replicates each of vehicle and 1) were placed in a microfuge tube rack on top of the center of a stir plate. Reactions were stirred at approximately 2,000 rpm at 37° C., and 60 μl aliquots were removed at the indicated timepoints. Aliquots were centrifuged at 16,000 g at 4° C. for 5 min. 10 μl of the supernatant was injected into a Waters Acquity H-Class Bio-UPLC (ultra performance liquid chromatography) instrument equipped with a BEH200 SEC column (Waters, Milford, MA) equilibrated with PBS with 1 mM EDTA. At the end of an experiment, stir bars were washed for at least 3 h with 1 M NaOH, followed by at least 3 h with 6 M GuHCl at room temperature to remove residual aggregates.
Thus, we also quantified aggregation by measuring the rate of disappearance of soluble dimeric LC using size exclusion chromatography (SEC) (4). […]

LCs with C214S mutation = assay: Fluorogenic coumarin titration, C214S LCs; format: binding, human; settings: 1 at 1 μM
Experimental: as §1, §2

WIL-FL C214S [3] = assay: Thioflavin T aggregation kinetics; format: biochemical, human; settings: thioflavin T fluorescence
Experimental: as §3
Thioflavin T (ThT)-containing aggregation reactions were set up in 96-well plates with similar conditions used for the reactions described above, except each 100 μl reaction also contained 2 μM ThT. Aggregation was induced with shaking as previously described (4). In total, 21 replicates for both vehicle and 1, over four independent experiments (plates) were performed.
WIL-FL C214S aggregates upon vigorous stirring at or below pH 5 to form heterogenous aggregate structures. […] This may be because a given LC can stochastically form different aggregate structures with different kinetics.

isolated λ3 C-domain = target: T1, isolated λ3 C-domain (Homo sapiens, UniProt P0DOY3); assay: Fluorogenic coumarin titration; format: binding; settings: 1 at 1 μM
T1 construct: made in house; host or cells: E. coli

CCN(CC)c1ccc2c(C)cc(=O)oc2c1 [Compound 1, 7-diethylamino-4-methylcoumarin]
protection from PK proteolysis (5J8 Fab): does not protect
affinity for 1 [1]: reduced affinity
PK activity (%) (WIL-FL*): 47.8 ± 0.7%
kagg (WIL-FL C214S [2]): 0.011 h⁻¹
affinity of LCs for 1 (LCs with C214S mutation): reduces the affinity
rate of aggregation versus vehicle control (WIL-FL C214S [3]): decreases the rate of aggregation significantly
binding of 1 (isolated λ3 C-domain): No binding
